The values that follow are results of earlier work, collected in patent publication US20070185063A1, “Seven-membered ring nucleosides” (Idenix Pharmaceuticals, Inc., priority 2005, published 2007).

The conditions of series [1]: in vivo.
Series [2] has as its system HCV. The settings on record: ribavirin alone.
Series [3] has as its system human granulocyte-macrophage colony-forming (CFU-GM) activity. The settings on record: in vitro, bone marrow cells from healthy volunteers; clinically relevant concentrations.
The test system of series [4] is erythroid burst-forming (BFU-E) activity. The settings on record: in vitro, bone marrow cells from healthy volunteers; clinically relevant concentrations.

On to `O=c1[nH]c(=O)n([C@@H]2O[C@H](CO)[C@@H](O)[C@@H]2F)cc1I` [fialuridine, 1,-2′-deoxy-2′-fluoro-1-β-D-arabinofuranosyl-5-iodo-uracil], for which the “clinical adverse events due to direct mitochondrial toxicity” value in series [1] is “caused hepatic failure, pancreatitis, neuropathy, myopathy and lactic acidosis”.

For the compound `NC(=O)c1ncn([C@@H]2O[C@H](CO)[C@@H](O)[C@H]2O)n1` [Ribavirin, 1-β-D-ribofuranosyl-1-1,2,4-triazole-3-carboxamide], in series [2], the “effect on serum levels of HCV-RNA” value was “does not lower serum levels of HCV-RNA” and the “patients in whom serum amino transferase levels are reduced to normal” value is on record as 40%.

For the compound `Cc1cn([C@H]2C[C@H](N=[N+]=[N-])[C@@H](CO)O2)c(=O)[nH]c1=O` [ZDV, zidovudine], the “concentration that directly inhibits CFU-GM activity” value in series [3] was 1 to 2 µM. In addition, the “concentration that directly inhibits BFU-E activity” value in series [4] was 1 to 2 µM.
